These results are taken from patent US20260374750A1, “LIGANDS SPECIFICALLY TARGETING VESICULAR GLUTAMATE TRANSPORTERS FOR SUPER-RESOLUTION IMAGING” (SORBONNE UNIVERSITÉ, priority 2021, published 2026).

Each structure is given as a SMILES string. Like-named read-outs stand apart in the source and are kept apart here.

A short description of series [1]: Fluorimetry: absorption and emission spectra, Stokes shift, molar absorption coefficient, quantum efficiency. It counts as physicochemical. The arrangement: λmax abs / λmax em: unit not given here; key to Stokes shift: λmaxem − λmaxabs (emission peak minus absorption peak). The settings on record: for Stokes shift: λmaxem-λmaxabs; for ε (molar absorption coefficient) / φ (quantum efficiency): coumarin-343 as reference. On the procedure:
The physicochemical properties of each ligand were determined thanks to fluorimetry. For each compound, a dilution range was performed and measurements were taken at 1 mM, 316 μM, 100 μM, 31.6 μM, 10 μM, 3.16 μM and 1μ. In 96-well fluorescence microplates, the absorbance and emission spectra of the ligands could be determined at each concentration thanks to a plate spectrophotometer (Tecan). The absorbance spectra are first measured for each compound so as to determine the maximum absorption wavelength (λmaxabs). The fluorescence, or emission, spectra are then determined after excitation of each compound at its λmaxabs, thus allowing obtaining the maximum fluorescence wavelength (λmaxem). Different parameters specific to each of the compounds were determined: • The Stokes shift: it corresponds to the difference between the peak of the absorption spectrum and the peak of the fluorescence spectrum, i.e.: λmaxem-λmaxabs • The molar absorption coefficient (ε): it reflects the capacity of the solutions to absorb light and is determined by the formula ε=A/(C.I)(A: optical density at λmaxabs, C: concentration of the compound, I: constant corresponding to the length of the optical path). ε is expressed in L·cm^−1·mol^−1. • The quantum efficiency (Φ): it represents the ratio of the number of photons emitted to the number of photons absorbed by the compound, i.e. the “probability” for an excited molecule to emit a photon. It takes a value between 0 and 1, 0 corresponding to a non-fluorescent molecule and 1 meaning that there is no de-excitation. Its value is determined thanks to the following formula where Abs: optical density at λmaxabs, AUC: area under the curve of the fluorescence spectrum, n: refractive index of the medium. In this formula, “m” refers to the studied molecule, and “r” to a reference fluorophore.
[formula] • of the fluorescence spectrum, n: refractive index of the medium). In this formula, “m” refers to the studied molecule, and “r” to a reference fluorophore.
The determination of ε and Φ requires the use of a reference fluorescent molecule for which these two parameters are known. Because of its coumarin-type fluorescent pattern, therefore close to those of the studied compounds, coumarin-343 (ε=44300 L·cm−1·mol−1 and Φ=0.63 in ethanol) was used as reference fluorophore. These two parameters were recalculated in the compound dilution medium (DMSO), and were used as a reference in the calculation of ε and Φ for each ligand.
In order to study the effect of a pH variation on the fluorescence intensity of the compounds, the measurements of the absorption and emission spectra were carried out in three different dilution media: • DMSO: pure dimethyl sulfoxide • Phosphate buffer pH 7.2 (0.2 M) • Phosphate buffer pH 5.5 (0.2 M)
FIG. 1 illustrates the absorption and emission spectra of the compound referenced L8, a carboxylic acid from the quinoline family. This is an example of the study carried out on each of the studied fluorophores. The graphic values determined thanks to these spectra are the λmaxabs, the λmaxem and the Stokes shift in each medium. […] The most diluted wells are preferred to see the emission peak of the compound.
The results which are obtained graphically thanks to the excitation and emission spectra and by calculation via the properties of coumarin 343 are grouped in Table 2 below.

Series [2] has as its system VGLUT3 (BON VGLUT3 cells). In words: Confocal fluorescence labeling of BON cells expressing VGLUT3. The settings on record: for intensity of labeling in BON VGLUT3 cells relative to BON WT cells: FIG. 3, 20 minutes; for intensity of labeling in BON VGLUT3 cells relative to BON WT cells / fluorescence intensity in BON VGLUT3 cells relative to BON WT cells / labeling in cytoplasm of BON VGLUT3 cells: 37 °C; for fluorescence intensity in BON VGLUT3 cells relative to BON WT cells / labeling in cytoplasm of BON VGLUT3 cells: 1 h; for effect of LSP5 pretreatment on fluorescence intensity in BON VGLUT3 cells: pretreatment with LSP5-2157. It is filed as cell-based, human (BON cells). The procedure:
A “BON” cell line describes cells derived from human pancreatic carcinoma; the article by Ramet L. et al., published in J Neurosci, 2017, 37 (15), 4181-4199, describes such cells and the use thereof for the characterization of VGLUT type transporters.
(§1) The experiments are carried out with a BON cell line stably expressing VGLUT3 or a fluorescent VGLUT2 “VGLUT2-venus”. Wild non-transfected BON cells (“wild-type”, BON WT) are used as controls. The cells are cultured in F-12 Nutrient Mixture Ham medium (21765-029, Thermo Fisher Scientific) and Dulbecco's Modified Eagle's Medium High Glucose (DMEM HG, 31966021, Thermo Fisher Scientific; volume/volume), supplemented with 10% fetal calf serum (FCS, 12483012, Thermo Fisher Scientific) and 1% (volume/volume) of a mixture of streptomycin (10 mg/mL)/penicillin (10,000 U/mL) and […] an incubator at 37 °C under 5% CO2. For the transfected clones, the medium is enriched with 0.8 mg/mL Geneticin G418 sulfate (G418, 10131027, Thermo Fisher Scientific).
The cells are cultured in 25 cm^2 culture flasks. When the cells are at confluence, they are rinsed with sterile PBS 1× after aspiration of the medium, then incubated for five minutes at 37 °C with a solution of trypsin-EDTA (0.05% trypsin EDTA, 25300054, Thermo Fisher Scientific. The cell layer is then detached and the cells dissociated from each other. After addition of medium, the cell suspension is centrifuged for 5 minutes at 300 g, then the pellet is diluted 1:3 in order to be recultivated.
(§2) Two days before each experiment, after trypsinization of the cells from a culture flask, the cell suspension is seeded at 150,000 cells/well, in twelve-well plates on glass coverslips 19 mm in diameter. For observation, these coverslips are placed in a chamber allowing a hermetic fixation of the coverslip in the observation medium, Fluorobrite™ DMEM (A1896701, Thermo Fisher Scientific), a transparent medium.
(§3) Before each observation, the cells are incubated at 37 °C in the presence of fluorescent ligands, at previously determined concentrations. The effect of a pretreatment of BON cells with a specific inhibitor of VGLUTs, the substance LSP5-2157, is also performed to study the inhibitory effect of this substance on the labeling of BON cells with the fluorescent ligands of the invention.
(§4) The cells are observed in real time under an inverted confocal microscope, with a 63× objective in a room thermostated at 37 °C (Leica TCS SP5; cellular imaging platform of the Paris-Seine Institute of Biology). The studied fluorescent molecules emit in the blue, the cells are excited at 405 nm.
(§5) FIG. 2 illustrates the observation and quantification of the BON cells under a confocal microscope, and the inhibition of the fluorescent signal by a pretreatment of the cells with the specific VGLUT inhibitor, LSP5-2157. […] The images are presented in negative. D,H,L and P: Quantification of the treatment effect.
Different acquisitions of cells are carried out using a confocal microscope. […] Statistical analysis: Kruskal-Wallis test followed by Dunn's post-hoc test, NS: non-significant, *p<0.01; ***p<0.0001.
FIG. 3 illustrates the observation and quantification of BON cells using a confocal microscope. Wild-type cells (BON WT) or VGLUT3-expressing cells (BON VGLUT3) are incubated with different fluorescent ligands referenced: L8, YL151, D04, C07, C05, B09, G02, F11. After treatment with fluorescent ligands for 20 minutes at 37 °C, a fluorescent labeling is visible in BON cells. The effect of the treatment is analyzed by quantifying the fluorescence intensity in each cell type. […] Statistical analysis: Mann Whitney test, NS: non-significant, **p=0.0042; ***p<0.0001.

In the next series the test system is BON WT cells. In words: Confocal fluorescence labeling of wild-type BON cells. It counts as cell-based, human. The settings on record: FIG. 2. The procedure: as §1, §2, §3, §4, §5
For series [3] the following is noted: reference fluorophore, in ethanol; cited from earlier work.
Setting [4] is: pH 7 (phosphate buffer pH 7.2, 0.2 M).
Where [5] appears, read: phosphate buffer pH 5.5 (0.2 M).

In the case of `CCOC(=O)c1cc(C(=O)OCC)c2cc(-c3ccc(-c4ccccc4)cc3)ccc2n1` [YL151, Diethyl 6-(biphenyl-4-yl) quinoline-2,4-dicarboxylate], in series [1] (DMSO), the λmax abs is on record as 360, the λmax em is 420-570, the Stokes shift came out at 60 and the “ε (molar absorption coefficient)” value came out at 25747.1 L/cm/mol. Besides, the “φ (quantum efficiency)” value in series [1] (DMSO) came to 0.11. Moreover, the Stokes shift in series [1] (pH 5.5) is 85. For the same compound, in series [1] (setting [4]), the λmax abs is recorded as 365 and the λmax em turned out to be 440. For the same compound, in series [1] (pH 7), the Stokes shift came to 75. Moreover, in series [1] (setting [5]), the λmax abs turned out to be 365 and the λmax em amounted to 450. In addition, the “intensity of labeling in BON VGLUT3 cells relative to BON WT cells” value in series [2] is given as “increases significantly”.
As for `CCOC(=O)c1cc2cc(-n3cc(-c4ccc(-c5ccc(N)cc5)cc4)nn3)c(OC)cc2oc1=O` [C07, Ethyl 6-(4-(4′-amino-[1,1′-biphenyl]-4-yl)-1H-1,2,3-triazol-1-yl)-7-methoxy-2-oxo-2H-chromene-3-carboxylate], in series [1] (DMSO), the λmax abs is on record as 335, the λmax em is on record as 410-430, the Stokes shift came out at 75 and the “ε (molar absorption coefficient)” value is 64913.8 L/cm/mol. In series [1] (DMSO), the “φ (quantum efficiency)” value came out at 0.05. Besides, the Stokes shift in series [1] (pH 5.5) was 50. Moreover, in series [1] (setting [4]), the λmax abs came to 365 and the λmax em is reported as 400. In series [1] (pH 7), the Stokes shift is listed as 35. Also, in series [1] (setting [5]), the λmax abs stood at 330 and the λmax em was determined as 380. In series [2] (FIG. 2), the “fluorescence intensity in BON VGLUT3 cells relative to BON WT cells” value is on record as “significantly increases”, the “labeling in cytoplasm of BON VGLUT3 cells” value is listed as “a punctiform labeling appears” and the “effect of LSP5 pretreatment on fluorescence intensity in BON VGLUT3 cells” value was “do not significantly differ”. In addition, in series [2], the “intensity of labeling in BON VGLUT3 cells relative to BON WT cells” value is “increases significantly”. Besides, the “labeling in cytoplasm of BON WT cells” value in the series with BON WT cells was “a weak and homogeneous labeling is detected”.
On to `Nc1cc(S(=O)(=O)O)cc2cc(S(=O)(=O)O)c(/N=N/c3ccc(-c4ccc(/N=N/c5c(S(=O)(=O)O)cc6cc(S(=O)(=O)O)cc(N)c6c5O)cc4)cc3)c(O)c12` [LSP5-2157, reference compound], for which the “inhibition of fluorescent labeling by pre-incubation with VGLUT inhibitor” value in series [2] (FIG. 2, against labeling by fluorescent ligands) was “significantly reduces the fluorescent labeling”. Also, the “displacement of ligand binding in cell culture” value in series [2] (reference VGLUT inhibitor) was “capable of displacing the ligand binding in cell culture”.
Regarding `CCOC(=O)c1cc2cc(-n3cc(-c4ccc(-c5ccc(N)cc5)cc4)nn3)ccc2oc1=O` [B09, Ethyl-6-(4-(4′-amino-[1,1′-biphenyl]-4-yl)-1H-1,2,3-triazol-1-yl)-2-oxo-2H-chromene-3-carboxylate], in series [1] (DMSO), the λmax abs was determined as 320, the λmax em is 407, the Stokes shift came to 87 and the “ε (molar absorption coefficient)” value was 48740.9 L/cm/mol. The “φ (quantum efficiency)” value in series [1] (DMSO) is recorded as 0.1. The Stokes shift in series [1] (pH 5.5) is 47. Also, in series [1] (setting [4]), the λmax abs is given as 365 and the λmax em is on record as 412. In series [1] (pH 7), the Stokes shift was 47. For the same compound, in series [1] (setting [5]), the λmax abs came out at 365 and the λmax em is 412. Further, in series [2] (FIG. 2), the “fluorescence intensity in BON VGLUT3 cells relative to BON WT cells” value is “significantly increases”, the “labeling in cytoplasm of BON VGLUT3 cells” value was “a punctiform labeling appears” and the “effect of LSP5 pretreatment on fluorescence intensity in BON VGLUT3 cells” value was “decreases the fluorescence intensity”. The “intensity of labeling in BON VGLUT3 cells relative to BON WT cells” value in series [2] is given as “increases significantly”. The “labeling in cytoplasm of BON WT cells” value with BON WT cells is “a weak and homogeneous labeling is detected”.
For the compound `Cc1cc(-c2ccc(/N=N/c3c(S(=O)(=O)O)cc4cc(S(=O)(=O)O)cc(N)c4c3O)c(C)c2)ccc1/N=N/c1c(S(=O)(=O)O)cc2cc(S(=O)(=O)O)cc(N)c2c1O` [trypan blue, reference compound], in series [2], the “block of binding of novel ligands by reference inhibitor” value was “block the binding of novel ligands”.
For the compound `O=C(O)c1cc2cc3c4c(c2oc1=O)CCCN4CCC3` [coumarin-343], in series [3], the “Φ (quantum efficiency)” value is listed as 0.63 and the “ε (molar absorption coefficient)” value was 44300 L/cm/mol.
